The values that follow come from the Kinase Knowledgebase extract (Sharma et al. 2016).

SMILES strings stand for the structures. Where only a bound is given, the exact number is not on record here.

Experiment [1] concerns the target PIK3CA (human) (UniProt P42336). Briefly: Inhibition of PIK3CA Kinase Activity.
Experiment [2] deals with PIK3CD (Human) (UniProt O00329). The experiment is described as follows: Inhibition of PIK3CD Kinase Activity.
The target of experiment [3] is PIK3CB (Human) (UniProt P42338). Briefly: Inhibition of PIK3CB Kinase Activity.
Chain of PIK3CB (Human) (P42338 whole entry, looked up): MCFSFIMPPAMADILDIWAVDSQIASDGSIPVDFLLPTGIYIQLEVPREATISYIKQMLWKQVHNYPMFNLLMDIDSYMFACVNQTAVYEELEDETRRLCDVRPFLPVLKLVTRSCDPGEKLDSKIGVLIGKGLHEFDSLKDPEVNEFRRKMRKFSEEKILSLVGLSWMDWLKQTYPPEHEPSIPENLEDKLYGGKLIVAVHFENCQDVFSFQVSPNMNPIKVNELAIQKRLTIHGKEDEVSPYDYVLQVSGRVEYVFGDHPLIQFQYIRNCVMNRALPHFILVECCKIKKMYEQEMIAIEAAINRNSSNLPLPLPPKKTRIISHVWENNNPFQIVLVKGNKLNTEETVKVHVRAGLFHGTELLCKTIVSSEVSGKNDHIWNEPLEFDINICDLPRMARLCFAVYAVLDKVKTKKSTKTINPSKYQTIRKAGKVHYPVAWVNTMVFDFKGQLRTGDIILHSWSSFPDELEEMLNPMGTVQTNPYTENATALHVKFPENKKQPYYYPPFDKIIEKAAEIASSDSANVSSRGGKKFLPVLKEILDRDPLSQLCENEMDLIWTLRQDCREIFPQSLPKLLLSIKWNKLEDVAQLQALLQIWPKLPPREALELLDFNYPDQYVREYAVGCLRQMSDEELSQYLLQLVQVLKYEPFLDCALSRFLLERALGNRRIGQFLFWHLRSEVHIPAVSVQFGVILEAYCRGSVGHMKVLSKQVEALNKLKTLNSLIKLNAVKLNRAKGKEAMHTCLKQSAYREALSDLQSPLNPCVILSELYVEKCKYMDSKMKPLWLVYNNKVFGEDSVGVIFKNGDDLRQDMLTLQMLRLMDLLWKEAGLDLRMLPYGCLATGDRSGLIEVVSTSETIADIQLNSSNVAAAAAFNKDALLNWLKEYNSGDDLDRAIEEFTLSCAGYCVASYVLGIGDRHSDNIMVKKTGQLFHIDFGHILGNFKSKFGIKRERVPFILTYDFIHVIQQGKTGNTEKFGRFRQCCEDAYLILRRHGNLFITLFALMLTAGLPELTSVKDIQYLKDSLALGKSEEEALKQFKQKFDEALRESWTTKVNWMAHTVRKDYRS

Chain of PIK3CA (human) (P42336 whole entry, looked up): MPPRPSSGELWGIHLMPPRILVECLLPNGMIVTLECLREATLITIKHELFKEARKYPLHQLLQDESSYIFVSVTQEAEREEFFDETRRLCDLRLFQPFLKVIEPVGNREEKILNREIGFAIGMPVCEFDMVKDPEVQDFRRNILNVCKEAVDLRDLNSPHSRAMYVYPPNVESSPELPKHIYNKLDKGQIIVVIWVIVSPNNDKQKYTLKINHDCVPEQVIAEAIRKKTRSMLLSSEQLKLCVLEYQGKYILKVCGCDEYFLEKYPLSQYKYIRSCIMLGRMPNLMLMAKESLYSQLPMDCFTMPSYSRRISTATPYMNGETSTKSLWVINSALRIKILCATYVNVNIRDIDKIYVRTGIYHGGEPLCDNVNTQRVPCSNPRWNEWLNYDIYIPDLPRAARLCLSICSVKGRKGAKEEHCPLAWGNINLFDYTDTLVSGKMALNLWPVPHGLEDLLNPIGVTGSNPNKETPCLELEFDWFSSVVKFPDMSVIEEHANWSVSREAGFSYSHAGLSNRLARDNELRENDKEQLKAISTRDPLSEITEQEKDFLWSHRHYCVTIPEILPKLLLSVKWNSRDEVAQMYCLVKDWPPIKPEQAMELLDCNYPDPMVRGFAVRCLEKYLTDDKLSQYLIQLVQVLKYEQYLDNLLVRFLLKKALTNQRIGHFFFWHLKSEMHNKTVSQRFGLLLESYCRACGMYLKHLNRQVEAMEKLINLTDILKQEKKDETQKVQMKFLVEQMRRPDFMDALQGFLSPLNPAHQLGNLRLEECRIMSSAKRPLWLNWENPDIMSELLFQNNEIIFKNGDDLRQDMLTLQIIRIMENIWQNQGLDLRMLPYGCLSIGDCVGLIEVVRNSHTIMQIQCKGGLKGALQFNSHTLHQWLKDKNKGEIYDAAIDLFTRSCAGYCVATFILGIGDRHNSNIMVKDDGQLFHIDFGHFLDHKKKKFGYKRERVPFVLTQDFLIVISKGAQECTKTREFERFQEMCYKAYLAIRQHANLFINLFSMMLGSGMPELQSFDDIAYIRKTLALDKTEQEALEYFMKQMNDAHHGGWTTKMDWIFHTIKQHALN
Chain of PIK3CD (Human) (O00329 whole entry, looked up): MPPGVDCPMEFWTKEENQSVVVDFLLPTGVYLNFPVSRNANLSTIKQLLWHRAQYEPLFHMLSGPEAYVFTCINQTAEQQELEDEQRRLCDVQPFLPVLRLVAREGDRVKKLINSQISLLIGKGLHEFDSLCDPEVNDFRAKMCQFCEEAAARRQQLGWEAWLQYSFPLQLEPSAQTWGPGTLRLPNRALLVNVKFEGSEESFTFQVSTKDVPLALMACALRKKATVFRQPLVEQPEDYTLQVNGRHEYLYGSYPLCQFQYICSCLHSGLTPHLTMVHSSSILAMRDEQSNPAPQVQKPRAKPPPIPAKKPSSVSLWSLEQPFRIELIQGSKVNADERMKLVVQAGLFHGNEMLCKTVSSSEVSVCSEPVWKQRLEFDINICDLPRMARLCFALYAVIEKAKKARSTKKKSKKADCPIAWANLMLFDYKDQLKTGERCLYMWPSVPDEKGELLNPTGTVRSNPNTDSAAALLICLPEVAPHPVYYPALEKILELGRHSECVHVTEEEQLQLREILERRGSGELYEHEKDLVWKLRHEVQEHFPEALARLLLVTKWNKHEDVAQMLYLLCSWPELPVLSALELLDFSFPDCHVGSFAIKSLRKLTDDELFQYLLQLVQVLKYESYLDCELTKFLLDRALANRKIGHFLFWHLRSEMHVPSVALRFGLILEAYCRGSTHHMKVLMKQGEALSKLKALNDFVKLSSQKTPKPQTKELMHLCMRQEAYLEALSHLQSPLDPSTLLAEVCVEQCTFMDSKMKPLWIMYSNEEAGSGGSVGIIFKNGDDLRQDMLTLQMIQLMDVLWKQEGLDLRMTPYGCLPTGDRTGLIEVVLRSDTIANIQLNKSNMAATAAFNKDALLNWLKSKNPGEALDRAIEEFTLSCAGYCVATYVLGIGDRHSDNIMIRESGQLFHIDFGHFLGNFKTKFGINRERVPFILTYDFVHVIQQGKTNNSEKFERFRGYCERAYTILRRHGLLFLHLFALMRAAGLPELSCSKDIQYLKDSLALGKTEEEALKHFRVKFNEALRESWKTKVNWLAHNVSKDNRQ

As usually defined, the IC50 is the point on the concentration scale where inhibition reaches its midpoint. Higher therefore signals weaker potency in that assay. Consider `Cc1ccc([N+](=O)[O-])cc1S(=O)(=O)c1nnc(-c2cnn3ccc(Br)cc23)o1`, for which the IC50 amounted to 84 nM in experiment [1] and 120 nM in experiment [2].

In experiment [3], `Cc1ccc([N+](=O)[O-])cc1S(=O)(=O)N(C)N=Cc1cnn2ccccc12` had a half-maximal inhibitory concentration (IC50) of over 10000 nM.

With `CCCCCC.Cc1ccc([N+](=O)[O-])cc1S(=O)(=O)N(C)N=Cc1cnn2ccc(I)cc12`, the figures for the concentration for half-maximal inhibition (IC50) in experiment [1], in experiment [2] and in experiment [3] were 23 nM, 240 nM and 720 nM, respectively.

For the compound `CN(N=Cc1cnn2ccc(C#N)cc12)S(=O)(=O)c1cc([N+](=O)[O-])ccc1Cl`, the IC50 in experiment [3] was 94 nM.

Take `CN(N=Cc1cnn2ccc(C#N)cc12)S(=O)(=O)c1cc([N+](=O)[O-])ccc1CCc1ccccn1`: the IC50 turned out to be 5.8 nM in experiment [1], 200 nM in experiment [2] and 5600 nM in experiment [3].
